Experimental data: patent US20240109903A1, “SUBSTITUTED HETEROCYCLES FOR TREATING CANCER” (Northwestern University, priority 2022, published 2024)
pIC50: −log10 of the molar value.

How the values were obtained:
[1] = test system: HL-60(TB); experiment: NCI 60 five-dose screen HL-60(TB); assay type: cell-based; details: Homo sapiens, five-dose
[2] = test system: MOLT-4; experiment: NCI 60 five-dose screen MOLT-4; assay type: cell-based; details: Homo sapiens, five-dose
[3] = test system: RPMI-8226; experiment: NCI 60 five-dose screen RPMI-8226; assay type: cell-based; details: Homo sapiens, five-dose
[4] = test system: SR; experiment: NCI 60 five-dose screen SR; assay type: cell-based, human; details: five-dose
[5] = test system: A549/ATCC; experiment: NCI 60 five-dose screen A549/ATCC; assay type: cell-based; details: Homo sapiens, five-dose
[6] = test system: HOP-62; experiment: NCI 60 five-dose screen HOP-62; assay type: cell-based; details: Homo sapiens, five-dose
[7] = test system: NCI-H226; experiment: NCI 60 five-dose screen NCI-H226; assay type: cell-based; details: Homo sapiens, five-dose
[8] = test system: NCI-H23; experiment: NCI 60 five-dose screen NCI-H23; assay type: cell-based; details: Homo sapiens, five-dose
[9] = test system: HCC-2998; experiment: NCI 60 five-dose screen HCC-2998; assay type: cell-based; details: Homo sapiens, five-dose
[10] = test system: SF-539; experiment: NCI 60 five-dose screen SF-539; assay type: cell-based; details: Homo sapiens, five-dose
[11] = test system: U251; experiment: NCI 60 five-dose screen U251; assay type: cell-based; details: Homo sapiens, U-251, five-dose
[12] = test system: MALME-3M; experiment: NCI 60 five-dose screen MALME-3M; assay type: cell-based; details: Homo sapiens, MALME-3M, five-dose
[13] = test system: M14; experiment: NCI 60 five-dose screen M14; assay type: cell-based; details: Homo sapiens, five-dose
[14] = test system: SK-MEL-28; experiment: NCI 60 five-dose screen SK-MEL-28; assay type: cell-based; details: Homo sapiens, five-dose
[15] = test system: SK-MEL-5; experiment: NCI 60 five-dose screen SK-MEL-5; assay type: cell-based; details: Homo sapiens, five-dose
[16] = test system: IGROV1; experiment: NCI 60 five-dose screen IGROV1; assay type: cell-based; details: Homo sapiens, IGROV-1, five-dose
[17] = test system: OVCAR-3; experiment: NCI 60 five-dose screen OVCAR-3; assay type: cell-based; details: Homo sapiens, five-dose
[18] = test system: OVCAR-4; experiment: NCI 60 five-dose screen OVCAR-4; assay type: cell-based; details: Homo sapiens, five-dose
[19] = test system: 786-0; experiment: NCI 60 five-dose screen 786-0; assay type: cell-based; details: Homo sapiens, five-dose
[20] = test system: A498; experiment: NCI 60 five-dose screen A498; assay type: cell-based; details: Homo sapiens, five-dose
[21] = test system: ACHN; experiment: NCI 60 five-dose screen ACHN; assay type: cell-based; details: Homo sapiens, five-dose
[22] = test system: CAKI-1; experiment: NCI 60 five-dose screen CAKI-1; assay type: cell-based; details: Homo sapiens, five-dose
[23] = test system: TK-10; experiment: NCI 60 five-dose screen TK-10; assay type: cell-based; details: Homo sapiens, five-dose
[24] = test system: MCF7; experiment: NCI 60 five-dose screen MCF7; assay type: cell-based; details: Homo sapiens, five-dose
[25] = test system: HS 578T; experiment: NCI 60 five-dose screen HS 578T; assay type: cell-based; details: Homo sapiens, five-dose
[26] = test system: BT-549; experiment: NCI 60 five-dose screen BT-549; assay type: cell-based; details: Homo sapiens, five-dose
[27] = test system: T-47D; experiment: NCI 60 five-dose screen T-47D; assay type: cell-based; details: Homo sapiens, T47D, five-dose
[28] = test system: MDA-MB-468; experiment: NCI 60 five-dose screen MDA-MB-468; assay type: cell-based; details: Homo sapiens, five-dose
[29] = read-out: LC50 (the source's name) (converted)
[30] = read-out: LC50 (the source's name)

Question: Which results are given for `FC(F)(F)c1cc2c(Cl)ncnc2n1CCN1CCCCC1` [NUCC-0226679]?
Answer: GI50 [1]: 2.09 µM; pIC50 [1]: 5.36; IC (TGI) [1]: 7.41 µM; CC50 [1, 29]: ≥ 100 µM; GI50 [2]: 10.5 µM; pIC50 [2]: 4.60; IC (TGI) [2]: 55 µM; CC50 [2, 30]: ≥ 100 µM; GI50 [3]: 31.6 µM; pIC50 [3]: 4.34; IC (TGI) [3]: 100 µM; CC50 [3, 30]: ≥ 100 µM; GI50 ([4]; Homo sapiens): 3.31 µM; pIC50 ([4]; Homo sapiens): 5.21; CC50 ([4]; Homo sapiens, read-out: LC50 (the source's name)): ≥ 100 µM; TGI [4]: 4.58 −log[M]; GI50 [5]: 79.4 µM; pIC50 [5]: 4.00; IC (TGI) [5]: 100 µM; CC50 [5, 29]: ≥ 100 µM; GI50 [6]: 38 µM; pIC50 [6]: 4.00; IC (TGI) [6]: 100 µM; CC50 [6, 29]: ≥ 100 µM; GI50 [7]: 60.3 µM; pIC50 [7]: 4.00; IC (TGI) [7]: 100 µM; CC50 [7, 29]: ≥ 100 µM; GI50 [8]: 13.8 µM; pIC50 [8]: 4.55; IC (TGI) [8]: 38.9 µM; CC50 [8, 29]: ≥ 100 µM; GI50 [9]: 4.07 µM; pIC50 [9]: 5.08; IC (TGI) [9]: 14.5 µM; CC50 [9, 29]: 40.7 µM; GI50 [10]: 17 µM; pIC50 [10]: 4.50; IC (TGI) [10]: 36.3 µM; CC50 [10, 29]: 75.9 µM; GI50 [11]: 14.1 µM; pIC50 [11]: 4.64; IC (TGI) [11]: 34.7 µM; CC50 [11, 29]: 87.1 µM; GI50 [12]: 19.1 µM; pIC50 [12]: 4.20; IC (TGI) [12]: 55 µM; CC50 [12, 29]: ≥ 100 µM; GI50 [13]: 12.9 µM; pIC50 [13]: 4.65; IC (TGI) [13]: 33.1 µM; CC50 [13, 29]: 87.1 µM; GI50 [14]: 15.8 µM; pIC50 [14]: 4.52; IC (TGI) [14]: 38 µM; CC50 [14, 29]: 89.1 µM; GI50 [15]: 14.8 µM; pIC50 [15]: 4.58; IC (TGI) [15]: 30.9 µM; CC50 [15, 29]: 64.6 µM; GI50 [16]: 2.95 µM; pIC50 [16]: 5.36; IC (TGI) [16]: 10.2 µM; CC50 [16, 29]: 38 µM; GI50 [17]: 17.8 µM; pIC50 [17]: 4.48; IC (TGI) [17]: 35.5 µM; CC50 [17, 29]: 72.4 µM; GI50 [18]: 28.2 µM; pIC50 [18]: 4.15; IC (TGI) [18]: 100 µM; CC50 [18, 29]: ≥ 100 µM; GI50 [19]: 39.8 µM; pIC50 [19]: 4.18; IC (TGI) [19]: 100 µM; CC50 [19, 29]: ≥ 100 µM; GI50 [20]: 100 µM; pIC50 [20]: 4.00; IC (TGI) [20]: 100 µM; CC50 [20, 29]: ≥ 100 µM; GI50 [21]: 6.46 µM; pIC50 [21]: 4.77; IC (TGI) [21]: 100 µM; CC50 [21, 29]: ≥ 100 µM; GI50 [22]: 25.1 µM; pIC50 [22]: 4.32; IC (TGI) [22]: 100 µM; CC50 [22, 29]: ≥ 100 µM; GI50 [23]: 100 µM; pIC50 [23]: 4.00; IC (TGI) [23]: 100 µM; CC50 [23, 29]: ≥ 100 µM; GI50 [24]: 19.5 µM; pIC50 [24]: 4.52; IC (TGI) [24]: 75.9 µM; CC50 [24, 29]: ≥ 100 µM; GI50 [25]: 16.6 µM; pIC50 [25]: 4.00; IC (TGI) [25]: 60.3 µM; CC50 [25, 30]: ≥ 100 µM; GI50 [26]: 15.1 µM; pIC50 [26]: 4.52; IC (TGI) [26]: 29.5 µM; CC50 [26, 29]: 58.9 µM; GI50 [27]: 21.9 µM; pIC50 [27]: 4.15; IC (TGI) [27]: 100 µM; CC50 [27, 30]: ≥ 100 µM; GI50 [28]: 3.02 µM; pIC50 [28]: 4.74; IC (TGI) [28]: 9.33 µM; CC50 [28, 29]: 38.9 µM
